The data set has as its system rodent carcinogenicity bioassays, tumor incidence. Description: CCRIS carcinogenicity studies. In outline:
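NCI-built, expert-reviewed records of carcinogenicity and related test outcomes (mutagenicity, tumor promotion/inhibition) compiled from published and report sources, historical span 1985-2011, not updated.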

Calls of active or inactive are those of the source. The rule behind the calls is not given here.

Turning to `Cc1cnc2ccc3c(nc(N)n3C)c2n1`, the carcinogen call reads like this: (Species: MONKEY, Strain/Sex: CYNOMOLGUS/FEMALE, Route: GAVAGE, Dose: 0, 10, 20 MG/KG BW FOR 84 MONTHS (STUDY DURATION: 92 MONTHS), Dose: 0, 10, 20 MG/KG BW FOR 84 MONTHS (STUDY DURATION: 92 MONTHS)) “inactive; negative”; (Species: MONKEY, Strain/Sex: CYNOMOLGUS/MALE, Route: GAVAGE, Dose: 0, 10, 20 MG/KG BW FOR 84 MONTHS (STUDY DURATION: 92 MONTHS), Dose: 0, 10, 20 MG/KG BW FOR 84 MONTHS (STUDY DURATION: 92 MONTHS)) “inactive; negative”; (Species: MOUSE, Strain/Sex: B6C3F1/MALE, Route: INTRAPERITONEAL, Dose: 0, 0.625 UMOL IN 35 µL DMSO ON D 1, 8, AND 15 AFTER BIRTH (STUDY DURATION: 8 MO)) “inactive; negative”; (Species: MOUSE, Strain/Sex: B6C3F1/MALE, Route: INTRAPERITONEAL, Dose: 0, 0.625 UMOL IN 35 µL DMSO ON D 1, 8, AND 15 AFTER BIRTH (STUDY DURATION: 12 MO), Tumor Site: Type of Lesion: LIVER: HEPATOCELLULAR ADENOMA) “active; positive”; (Species: MOUSE, Strain/Sex: B6C3F1/MALE, Route: INTRAPERITONEAL, Dose: 0, 1.25 UMOL IN 35 µL DMSO ON D 1, 8, AND 15 AFTER BIRTH (STUDY DURATION: 8 MO)) “inactive; negative”; (Species: MOUSE, Strain/Sex: B6C3F1/MALE, Route: INTRAPERITONEAL, Dose: 0, 1.25 UMOL IN 35 µL DMSO ON D 1, 8, AND 15 AFTER BIRTH (STUDY DURATION: 12 MO), Tumor Site: Type of Lesion: LIVER: HEPATOCELLULAR ADENOMA, HEPATOCELLULAR CARCINOMA) “active; positive”. The carcinogen call (Species: MOUSE, Strain/Sex: C57BL/6J/MALE (20/GROUP), Route: DIET, Dose: 0, 30, 300 PPM FOR 78 WK (STUDY DURATION: 78 WK), Dose: 0, 30, 300 PPM FOR 78 WK (STUDY DURATION: 78 WK)) is “inactive; negative”; the carcinogen call (Species: MOUSE, Strain/Sex: CDF1/FEMALE, Route: ORAL, Dose: 0, 0.06% IN DIET FOR 84 WK (STUDY DURATION: 84 WK), Tumor Site: Type of Lesion: LIVER: TUMOR, LUNG: ADENOMA OR ADENOCARCINOMA) was “active; positive”; the carcinogen call (Species: MOUSE, Strain/Sex: CDF1/MALE, Route: ORAL, Dose: 0, 0.06% IN DIET FOR 84 WK (STUDY DURATION: 84 WK), Tumor Site: Type of Lesion: LIVER: TUMOR, LYMPHATIC SYSTEM: LYMPHOMA OR LEUKEMIA) is “active; positive”; the carcinogen call (Species: RAT, Strain/Sex: F344/FEMALE, Route: ORAL, Dose: 0, 0.04% IN DIET FOR DURATION OF STUDY (STUDY DURATION: 429 D), Tumor Site: Type of Lesion: LIVER: TUMOR, ZYMBAL GLAND: TUMOR, CLITORAL GLAND: TUMOR, Tumor Site: Type of Lesion: LIVER: TUMOR, ZYMBAL GLAND: TUMOR, CLITORAL GLAND: TUMOR) is “active; positive”; the carcinogen call (Species: RAT, Strain/Sex: F344/MALE, Route: ORAL, Dose: 0, 0.04% IN DIET FOR DURATION OF STUDY (STUDY DURATION: 429 D), Tumor Site: Type of Lesion: LIVER: TUMOR, ZYMBAL GLAND: TUMOR, SKIN: TUMOR, Tumor Site: Type of Lesion: LIVER: TUMOR, ZYMBAL GLAND: TUMOR, SKIN: TUMOR) was “active; positive”; the carcinogen call (Species: RAT, Strain/Sex: F344/MALE, Route: ORAL, Dose: 0, 100, 200, 400 PPM IN DIET FOR 56 WK (STUDY DURATION: 56 WK), Dose: 0, 100, 200, 400 PPM IN DIET FOR 56 WK (STUDY DURATION: 56 WK), Tumor Site: Type of Lesion: LIVER: HEPATOCELLULAR ADENOMA, HEPATOCELLULAR CARCINOMA, ZYMBAL GLAND: SQUAMOUS CELL CARCINOMA, SKIN: TUMOR, Tumor Site: Type of Lesion: LIVER: HEPATOCELLULAR ADENOMA, HEPATOCELLULAR CARCINOMA, ZYMBAL GLAND: SQUAMOUS CELL CARCINOMA, SKIN: TUMOR) is “active; positive”. In addition, the carcinogen call is “inactive; negative” (Species: RAT, Strain/Sex: LEA/MALE, Route: ORAL, Dose: 0, 40 PPM IN DIET FOR 40 WK (STUDY DURATION: 40 WK)); “active; positive” (Species: RAT, Strain/Sex: LEC/MALE, Route: ORAL, Dose: 0, 40 PPM IN DIET FOR 40 WK (STUDY DURATION: 40 WK), Tumor Site: Type of Lesion: LIVER: TUMOR); “active; positive” (Species: RAT, Strain/Sex: SPRAGUE-DAWLEY/FEMALE, Route: GAVAGE, Dose: 75 MG/KG/D FOR 10 D, THEN PLACED ON A HIGH-FAT DIET (STUDY DURATION: 46 WK), Tumor Site: Type of Lesion: MAMMARY GLAND: CARCINOMA, ADENOMA).
As for `OCc1c2ccccc2c2ccc3cccc4ccc1c2c43`, the carcinogen call is “active; positive” (Species: MOUSE, Strain/Sex: B6C3F1/MALE, Route: INTRAPERITONEAL, Dose: 0, 0.0025, 0.005, 0.015 UMOL/G ONCE AT 12 DAYS OF AGE (STUDY DURATION: 10 MO), Dose: 0, 0.0025, 0.005, 0.015 UMOL/G ONCE AT 12 DAYS OF AGE (STUDY DURATION: 10 MO), Tumor Site: Type of Lesion: LIVER: HEPATOMA) and “active; positive” (Species: RAT, Strain/Sex: SPRAGUE-DAWLEY/FEMALE, Route: SUBCUTANEOUS, Dose: 0, 0.2 UMOL 3/WK FOR 20 DOSES (STUDY DURATION: 52 WK), Tumor Site: Type of Lesion: INJECTION SITE: SARCOMA).
